Patent US20230002359A1, “PESTICIDALLY ACTIVE FUSED BICYCLIC HETEROAROMATIC COMPOUNDS” (priority 2019, published 2023)

Columns and labels:
Format in all cases: in vivo
[1] = system: Spodoptera littoralis (Egyptian Cotton Leaf Worm); experiment: Example B7: Spodoptera littoralis (Egyptian cotton leaf worm), cotton leaf discs sprayed, L1 larvae; settings: foliar, 72 h, application rate of 200 ppm, 3 days after infestation, L1 larvae, read-out: control in at least one of the three categories (mortality, anti-feedant effect, or growth inhibition)
How it was run: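 Spray application onto agar-supported cotton leaf discs used aqueous solutions derived from 10′000 ppm DMSO stocks. Once dry, discs were infested with five L1 larvae and evaluated after 3 days for mortality, anti-feeding and growth inhibition relative to untreated controls.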

[2] = system: Myzus persicae (Green Peach Aphid); experiment: Example B6: Myzus persicae (green peach aphid) intrinsic activity, sucrose solution; settings: 120 h, test rate of 12 ppm, 5 days after infestation, intrinsic activity, read-out: mortality
Procedure: Test compounds prepared from 10′000 ppm DMSO stock solutions were applied by pipette into 24-well microtiter plates and mixed with sucrose solution. The plates were closed with a stretched Parafilm. A plastic stencil with 24 holes was placed onto the plate and infested pea seedlings were placed directly on the Parafilm. The infested plate was closed with a gel blotting paper and another plastic stencil and then turned upside down. The samples were assessed for mortality 5 days after infestation.

[3] = system: Plutella xylostella (Diamond Back Moth); experiment: Example B4: Plutella xylostella (diamond back moth), artificial diet, eggs, 24-well; settings: 192 h, application rate of 200 ppm, 8 days after infestation, eggs, read-out: control in at least one of the two categories (mortality or growth inhibition)
Procedure: 24-well microtiter plates with artificial diet were treated with aqueous test solutions prepared from 10′000 ppm DMSO stock solutions by pipetting. After drying, Plutella eggs were pipetted through a plastic stencil onto a gel blotting paper and the plate was closed with it. The samples were assessed for mortality and growth inhibition in comparison to untreated samples 8 days after infestation.

[4] = system: Chilo suppressalis (Striped Rice Stemborer); experiment: Example B3: Chilo suppressalis (striped rice stemborer), artificial diet, L2 larvae; settings: 144 h, application rate of 200 ppm, 6 days after infestation, L2 larvae, read-out: control in at least one of the three categories (mortality, anti-feedant effect, or growth inhibition)
How it was run: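 Artificial diet in wells was treated with aqueous test solutions diluted from 10'000 ppm DMSO stocks, dried, then infested with 6-8 L2 larvae per well. Mortality, anti-feeding effect and growth inhibition were scored against untreated samples 6 days after infestation; control means any category exceeds the untreated sample.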

[5] = system: Diabrotica Balteata (Corn Root Worm); experiment: Example B1: Diabrotica balteata (corn root worm), maize sprouts sprayed, L2 larvae; settings: 96 h, application rate of 200 ppm, 4 days after infestation, L2 larvae, read-out: control in at least one of the two categories (mortality or growth inhibition)
How it was run: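 Spray test: maize sprouts on agar, aqueous dilutions of 10′000 ppm DMSO stock; after drying, 6–10 L2 larvae/well. Read-out at 4 d post-infestation: mortality and growth inhibition vs untreated.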

C[C@H](Nc1ncnc2c(Cl)cc(C(F)(F)F)cc12)c1ncnn1-c1ncccn1 [P.18, 8-chloro-N-[(1S)-1-(2-pyrimidin-2-yl-1,2,4-triazol-3-yl)ethyl]-6-(trifluoromethyl)quinazolin-4-amine]
≥ 80%: percent control (mortality, anti-feedant effect or growth inhibition) at 200 ppm [1] | mortality at 12 ppm [2] | percent control (mortality or growth inhibition) at 200 ppm [3] | percent control (mortality, anti-feedant effect or growth inhibition) at 200 ppm [4] | percent control (mortality or growth inhibition) at 200 ppm [5]

CC(c1nccnc1-c1ncccn1)N(C)c1ncnc2c(C(F)(F)F)cc(Br)cc12 (stereo not shown) [P.98, 6-bromo-N-methyl-N-[1-(3-pyrimidin-2-ylpyrazin-2-yl)ethyl]-8-(trifluoromethyl)quinazolin-4-amine]
≥ 80%: percent control (mortality, anti-feedant effect or growth inhibition) at 200 ppm [1] | mortality at 12 ppm [2] | percent control (mortality or growth inhibition) at 200 ppm [3] | percent control (mortality, anti-feedant effect or growth inhibition) at 200 ppm [4] | percent control (mortality or growth inhibition) at 200 ppm [5]

C[C@H](Nc1ncnc2c(C(F)(F)F)cc(Cl)cc12)c1ncnn1-c1ccc(C#N)cn1 [P.22, 6-[5-[(1S)-1-[[6-chloro-8-(trifluoromethyl)quinazolin-4-yl]amino]ethyl]-1,2,4-triazol-1-yl]pyridine-3-carbonitrile]
≥ 80%: percent control (mortality, anti-feedant effect or growth inhibition) at 200 ppm [1] | mortality at 12 ppm [2] | percent control (mortality or growth inhibition) at 200 ppm [3] | percent control (mortality, anti-feedant effect or growth inhibition) at 200 ppm [4] | percent control (mortality or growth inhibition) at 200 ppm [5]

CC(c1ncnn1-c1ccc(OC(F)F)cn1)N(C)c1ncnc2c(C(F)(F)F)cc(Br)cc12 (stereo not shown) [P.194, 6-bromo-N-[1-[2-[5-(difluoromethoxy)-2-pyridyl]-1,2,4-triazol-3-yl]ethyl]-N-methyl-8-(trifluoromethyl)quinazolin-4-amine]
≥ 80%: percent control (mortality, anti-feedant effect or growth inhibition) at 200 ppm [1] | mortality at 12 ppm [2] | percent control (mortality or growth inhibition) at 200 ppm [3] | percent control (mortality, anti-feedant effect or growth inhibition) at 200 ppm [4] | percent control (mortality or growth inhibition) at 200 ppm [5]

CC(Nc1ncnc2c(Br)cc(OC(F)(F)F)cc12)c1nccnc1-c1ncccn1 (stereo not shown) [P.12, 8-bromo-N-[1-(3-pyrimidin-2-ylpyrazin-2-yl)ethyl]-6-(trifluoromethoxy)quina-zolin-4-amine]
≥ 80%: percent control (mortality, anti-feedant effect or growth inhibition) at 200 ppm [1] | mortality at 12 ppm [2] | percent control (mortality or growth inhibition) at 200 ppm [3] | percent control (mortality, anti-feedant effect or growth inhibition) at 200 ppm [4] | percent control (mortality or growth inhibition) at 200 ppm [5]

C[C@@H](c1ncnn1-c1ncccn1)N(C)c1ncnc2c(C(F)(F)F)cc(Br)cc12 [P.208, 6-bromo-N-methyl-N-[(1S)-1-(2-pyrimidin-2-yl-1,2,4-triazol-3-yl)ethyl]-8-(trifluoromethyl)quinazolin-4-amine]
≥ 80%: percent control (mortality, anti-feedant effect or growth inhibition) at 200 ppm [1] | mortality at 12 ppm [2] | percent control (mortality or growth inhibition) at 200 ppm [3] | percent control (mortality, anti-feedant effect or growth inhibition) at 200 ppm [4] | percent control (mortality or growth inhibition) at 200 ppm [5]

CC(Nc1ncnc2c(C(F)(F)F)cc(Br)cc12)c1nccnc1-c1ncccn1 (stereo not shown) [P.133, 6-bromo-N-[1-(3-pyrimidin-2-ylpyrazin-2-yl)ethyl]-8-(trifluoromethyl)quinazolin-4-amine]
≥ 80%: percent control (mortality, anti-feedant effect or growth inhibition) at 200 ppm [1] | mortality at 12 ppm [2] | percent control (mortality or growth inhibition) at 200 ppm [3] | percent control (mortality, anti-feedant effect or growth inhibition) at 200 ppm [4] | percent control (mortality or growth inhibition) at 200 ppm [5]

C[C@@H](c1ncnn1-c1ncccn1)N(C)c1ccnc2c(C(F)(F)F)cc(C(F)(F)F)cc12 [P.88, N-methyl-N-[(1S)-1-(2-pyrimidin-2-yl-1,2,4-triazol-3-yl)ethyl]-6,8-bis(trifluoromethyl)quino-lin-4-amine]
≥ 80%: mortality at 12 ppm [2] | percent control (mortality or growth inhibition) at 200 ppm [3] | percent control (mortality, anti-feedant effect or growth inhibition) at 200 ppm [4] | percent control (mortality or growth inhibition) at 200 ppm [5]

C[C@@H](c1ncnn1-c1ncccn1)N(C)c1ncnc2c(Cl)cc(OC(F)F)cc12 [P.91, 8-chloro-6-(difluoromethoxy)-N-methyl-N-[(1S)-1-(2-pyrimidin-2-yl-1,2,4-triazol-3-yl)ethyl]quinazolin-4-amine]
≥ 80%: mortality at 12 ppm [2] | percent control (mortality or growth inhibition) at 200 ppm [3] | percent control (mortality, anti-feedant effect or growth inhibition) at 200 ppm [4] | percent control (mortality or growth inhibition) at 200 ppm [5]

CC(c1nccnc1-c1ncccn1)N(C)c1ncnc2c(Br)cc(Cl)cc12 (stereo not shown) [P.182, 8-bromo-6-chloro-N-methyl-N-[1-(3-pyrimidin-2-ylpyrazin-2-yl)ethyl]quinazolin-4-amine]
≥ 80%: percent control (mortality, anti-feedant effect or growth inhibition) at 200 ppm [1] | mortality at 12 ppm [2] | percent control (mortality or growth inhibition) at 200 ppm [3] | percent control (mortality or growth inhibition) at 200 ppm [5]

CC(c1ncnn1-c1ncccn1)N(C)c1nccc2c(C(F)(F)F)cc(C(F)(F)F)cc12 (stereo not shown) [P.250, N-methyl-N-[1-(2-pyrimidin-2-yl-1,2,4-triazol-3-yl)ethyl]-5,7-bis(trifluoromethyl)isoquino-lin-1-amine]
≥ 80%: percent control (mortality, anti-feedant effect or growth inhibition) at 200 ppm [1] | percent control (mortality or growth inhibition) at 200 ppm [3] | percent control (mortality, anti-feedant effect or growth inhibition) at 200 ppm [4] | percent control (mortality or growth inhibition) at 200 ppm [5]

CC(Nc1ncnc2c(OC(F)(F)F)cc(Br)cc12)c1ncnn1-c1ccc(C#N)cn1 (stereo not shown) [P.247, 6-[5-[1-[[6-bromo-8-(trifluoromethoxy)quinazo-lin-4-yl]amino]ethyl]-1,2,4-triazol-1-yl]pyridine-3-carbonitrile]
≥ 80%: percent control (mortality, anti-feedant effect or growth inhibition) at 200 ppm [1] | percent control (mortality or growth inhibition) at 200 ppm [3] | percent control (mortality, anti-feedant effect or growth inhibition) at 200 ppm [4] | percent control (mortality or growth inhibition) at 200 ppm [5]

C[C@@H](c1ncnn1-c1ccc(C#N)cn1)N(C)c1ccnc2c(C(F)(F)F)cc(Br)cc12 [P.206, 6-[5-[(1S)-1-[[6-bromo-8-(trifluoromethyl)-4-quinolyl]-methyl-amino]ethyl]-1,2,4-triazol-1-yl]pyridine-3-carbonitrile]
≥ 80%: percent control (mortality, anti-feedant effect or growth inhibition) at 200 ppm [1] | percent control (mortality or growth inhibition) at 200 ppm [3] | percent control (mortality, anti-feedant effect or growth inhibition) at 200 ppm [4] | percent control (mortality or growth inhibition) at 200 ppm [5]

CC(Nc1ncnc2c(Cl)cc(C(F)(F)F)cc12)c1nccnc1-c1ccc(OC(F)F)cn1 (stereo not shown) [P.113, 8-chloro-N-[1-[3-[5-(difluoromethoxy)-2-pyridyl]pyrazin-2-yl]ethyl]-6-(trifluoromethyl)quinazolin-4-amine]
≥ 80%: percent control (mortality, anti-feedant effect or growth inhibition) at 200 ppm [1] | percent control (mortality or growth inhibition) at 200 ppm [3] | percent control (mortality, anti-feedant effect or growth inhibition) at 200 ppm [4] | percent control (mortality or growth inhibition) at 200 ppm [5]

CC(Nc1ncnc2c(C(F)(F)F)cc(Cl)cc12)c1nccnc1-c1ccc(C#N)cn1 (stereo not shown) [P.118, 6-[3-[1-[[6-chloro-8-(trifluoromethyl)quinazolin-4-yl]amino]ethyl]pyrazin-2-yl]pyridine-3-carbonitrile]
≥ 80%: percent control (mortality, anti-feedant effect or growth inhibition) at 200 ppm [1] | percent control (mortality or growth inhibition) at 200 ppm [3] | percent control (mortality, anti-feedant effect or growth inhibition) at 200 ppm [4] | percent control (mortality or growth inhibition) at 200 ppm [5]

CC(c1nccnc1-n1nccn1)N(C)c1ncnc2c(Br)cc(Cl)cc12 (stereo not shown) [P.174, 8-bromo-6-chloro-N-methyl-N-[1-[3-(triazol-2-yl)pyrazin-2-yl]ethyl]quinazolin-4-amine]
≥ 80%: percent control (mortality, anti-feedant effect or growth inhibition) at 200 ppm [1] | percent control (mortality or growth inhibition) at 200 ppm [3] | percent control (mortality, anti-feedant effect or growth inhibition) at 200 ppm [4] | percent control (mortality or growth inhibition) at 200 ppm [5]

CC(c1nccnc1-c1ncccn1)N(CC1CC1)c1ncnc2c(C(F)(F)F)cc(Cl)cc12 (stereo not shown) [P.131, 6-chloro-N-(cyclopropylmethyl)-N-[1-(3-pyrimidin-2-ylpyrazin-2-yl)ethyl]-8-(trifluoromethyl)quinazolin-4-amine]
≥ 80%: percent control (mortality, anti-feedant effect or growth inhibition) at 200 ppm [1] | percent control (mortality or growth inhibition) at 200 ppm [3] | percent control (mortality, anti-feedant effect or growth inhibition) at 200 ppm [4] | percent control (mortality or growth inhibition) at 200 ppm [5]

CC(Nc1ncnc2c(Cl)cc(C(F)(F)F)cc12)c1ncnn1-c1ccc(F)cn1 (stereo not shown) [P.274, 8-chloro-N-[1-[2-(5-fluroo-2-pyridyl)-1,2,4-triazol-3-yl]ethyl]-6-(trifluoromethyl)quinazolin-4-amine]
≥ 80%: percent control (mortality, anti-feedant effect or growth inhibition) at 200 ppm [1] | percent control (mortality or growth inhibition) at 200 ppm [3] | percent control (mortality, anti-feedant effect or growth inhibition) at 200 ppm [4] | percent control (mortality or growth inhibition) at 200 ppm [5]
